Laboratory results as given in PubChem BioAssay (NCI).
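Five compound concentrations were applied to cells in 96-well plates for 48 hours; endpoints were derived by simple linear interpolation of the resulting dose-response curve. Definition used: TGI = concentration required for complete inhibition of growth.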

Columns and labels:
Test in all cases: DTP human tumour cell line panel, 48 h
[1] = test system: 786-0 renal
[2] = test system: A498 renal
[3] = test system: A549 NSCLC
[4] = test system: ACHN renal
[5] = test system: BT-549 breast
[6] = test system: CAKI-1 renal
[7] = test system: CCRF-CEM leukemia
[8] = test system: COLO 205 colon
[9] = test system: DU-145 prostate
[10] = test system: EKVX NSCLC
[11] = test system: HCC-2998 colon
[12] = test system: HCT-116 colon
[13] = test system: HCT-15 colon
[14] = test system: HL-60(TB) leukemia
[15] = test system: HOP-62 NSCLC
[16] = test system: HOP-92 NSCLC
[17] = test system: HS 578T breast
[18] = test system: HT29 colon
[19] = test system: IGROV1 ovarian
[20] = test system: K-562 leukemia
[21] = test system: KM12 colon
[22] = test system: LOX IMVI melanoma
[23] = test system: M14 melanoma
[24] = test system: MALME-3M melanoma
[25] = test system: MCF7 breast
[26] = test system: MDA-MB-231 breast
[27] = test system: MDA-MB-435
[28] = test system: MDA-N
[29] = test system: MOLT-4 leukemia
[30] = test system: NCI-H23 lung
[31] = test system: NCI-H460 lung
[32] = test system: NCI-H522 lung
[33] = test system: NCI/ADR-RES ovarian
[34] = test system: OVCAR-3 ovarian
[35] = test system: OVCAR-5 ovarian
[36] = test system: OVCAR-8 ovarian
[37] = test system: PC-3 prostate
[38] = test system: RPMI-8226 leukemia
[39] = test system: RXF 393 renal
[40] = test system: SF-268 CNS
[41] = test system: SF-295 CNS
[42] = test system: SF-539 CNS
[43] = test system: SK-MEL-2 melanoma
[44] = test system: SK-MEL-28 melanoma
[45] = test system: SK-MEL-5 melanoma
[46] = test system: SK-OV-3 ovarian
[47] = test system: SN12C renal
[48] = test system: SNB-19 CNS
[49] = test system: SNB-75 CNS
[50] = test system: SR leukemia
[51] = test system: SW-620 colon
[52] = test system: T-47D breast
[53] = test system: TK-10 renal
[54] = test system: U251 CNS
[55] = test system: UACC-257 melanoma
[56] = test system: UACC-62 melanoma
[57] = test system: UO-31 renal
[58] = test system: DLD-1 colon
[59] = test system: DMS 114 small cell lung
[60] = test system: DMS 273 small cell lung
[61] = test system: HOP-18 NSCLC
[62] = test system: KM20L2 colon
[63] = test system: LXFL 529 NSCLC
[64] = test system: M19-MEL melanoma
[65] = test system: NCI-H226 lung
[66] = test system: OVCAR-4 ovarian
[67] = test system: SNB-78 CNS
[68] = test system: XF 498 CNS
[69] = test system: RXF-631 renal

## CCOC(=O)c1ccc(Nc2nc3ccccc3n3cccc23)cc1
[1]
  TGI: > 100 µM
[2]
  TGI: > 100 µM
[3]
  TGI: > 100 µM
[4]
  TGI: > 100 µM
[5]
  TGI: > 100 µM
[6]
  TGI: > 100 µM
[7]
  TGI: 0.108 µM
[8]
  TGI: > 100 µM
[9]
  TGI: > 100 µM
[10]
  TGI: > 100 µM
[11]
  TGI: > 100 µM
[12]
  TGI: > 100 µM
[13]
  TGI: > 100 µM
[14]
  TGI: 0.0169 µM
[15]
  TGI: 75.7 µM
[16]
  TGI: > 100 µM
[17]
  TGI: > 100 µM
[18]
  TGI: > 100 µM
[19]
  TGI: > 100 µM
[20]
  TGI: > 100 µM
[21]
  TGI: > 100 µM
[22]
  TGI: > 100 µM
[23]
  TGI: > 100 µM
[24]
  TGI: > 100 µM
[25]
  TGI: > 100 µM
[26]
  TGI: > 100 µM
[27]
  TGI: > 100 µM
[28]
  TGI: > 100 µM
[29]
  TGI: > 100 µM
[30]
  TGI: > 100 µM
[31]
  TGI: > 100 µM
[32]
  TGI: > 100 µM
[33]
  TGI: > 100 µM
[34]
  TGI: > 100 µM
[35]
  TGI: > 100 µM
[36]
  TGI: > 100 µM
[37]
  TGI: > 100 µM
[38]
  TGI: > 100 µM
[39]
  TGI: 49.7 µM
[40]
  TGI: > 100 µM
[41]
  TGI: > 100 µM
[42]
  TGI: > 100 µM
[43]
  TGI: > 100 µM
[44]
  TGI: > 100 µM
[45]
  TGI: > 100 µM
[46]
  TGI: 92.4 µM
[47]
  TGI: 39.4 µM
[48]
  TGI: > 100 µM
[49]
  TGI: 48.3 µM
[50]
  TGI: > 100 µM
[51]
  TGI: > 100 µM
[52]
  TGI: 47.7 µM
[53]
  TGI: > 100 µM
[54]
  TGI: 98 µM
[55]
  TGI: > 100 µM
[56]
  TGI: > 100 µM
[57]
  TGI: > 100 µM

## OCC1CC2C=CCC(C2)C1 (stereo unspecified)
[1]
  TGI: > 100 µM
[2]
  TGI: > 100 µM
[3]
  TGI: > 100 µM
[4]
  TGI: > 100 µM
[6]
  TGI: > 100 µM
[7]
  TGI: > 100 µM
[8]
  TGI: > 100 µM
[58]
  TGI: > 100 µM
[59]
  TGI: > 100 µM
[60]
  TGI: > 100 µM
[10]
  TGI: > 100 µM
[12]
  TGI: > 100 µM
[14]
  TGI: > 100 µM
[61]
  TGI: > 100 µM
[15]
  TGI: > 100 µM
[16]
  TGI: > 100 µM
[18]
  TGI: > 100 µM
[19]
  TGI: > 100 µM
[20]
  TGI: > 100 µM
[21]
  TGI: > 100 µM
[62]
  TGI: > 100 µM
[22]
  TGI: > 100 µM
[63]
  TGI: > 100 µM
[23]
  TGI: > 100 µM
[64]
  TGI: > 100 µM
[24]
  TGI: > 100 µM
[29]
  TGI: > 100 µM
[65]
  TGI: > 100 µM
[30]
  TGI: > 100 µM
[31]
  TGI: > 100 µM
[32]
  TGI: > 100 µM
[34]
  TGI: > 100 µM
[66]
  TGI: > 100 µM
[35]
  TGI: > 100 µM
[36]
  TGI: > 100 µM
[38]
  TGI: > 100 µM
[39]
  TGI: > 100 µM
[40]
  TGI: > 100 µM
[41]
  TGI: > 100 µM
[42]
  TGI: > 100 µM
[43]
  TGI: > 100 µM
[44]
  TGI: > 100 µM
[45]
  TGI: > 100 µM
[46]
  TGI: > 100 µM
[47]
  TGI: > 100 µM
[48]
  TGI: > 100 µM
[49]
  TGI: > 100 µM
[67]
  TGI: > 100 µM
[50]
  TGI: > 100 µM
[51]
  TGI: > 100 µM
[53]
  TGI: > 100 µM
[54]
  TGI: > 100 µM
[55]
  TGI: > 100 µM
[56]
  TGI: > 100 µM
[57]
  TGI: > 100 µM
[68]
  TGI: > 100 µM

## [N-]=[N+]=C1C(=O)C2CC3CC1CC2C3 (stereo unspecified)
[1]
  TGI: > 100 µM
[2]
  TGI: > 100 µM
[3]
  TGI: > 100 µM
[4]
  TGI: > 100 µM
[6]
  TGI: > 100 µM
[7]
  TGI: > 100 µM
[8]
  TGI: > 100 µM
[58]
  TGI: > 100 µM
[59]
  TGI: > 100 µM
[60]
  TGI: > 100 µM
[10]
  TGI: > 100 µM
[11]
  TGI: > 100 µM
[12]
  TGI: > 100 µM
[13]
  TGI: > 100 µM
[14]
  TGI: > 100 µM
[61]
  TGI: > 100 µM
[15]
  TGI: > 100 µM
[16]
  TGI: > 100 µM
[18]
  TGI: > 100 µM
[19]
  TGI: > 100 µM
[20]
  TGI: > 100 µM
[21]
  TGI: > 100 µM
[62]
  TGI: > 100 µM
[22]
  TGI: > 100 µM
[63]
  TGI: > 100 µM
[23]
  TGI: > 100 µM
[64]
  TGI: > 100 µM
[24]
  TGI: > 100 µM
[29]
  TGI: > 100 µM
[65]
  TGI: > 100 µM
[30]
  TGI: > 100 µM
[31]
  TGI: > 100 µM
[32]
  TGI: > 100 µM
[34]
  TGI: > 100 µM
[66]
  TGI: > 100 µM
[35]
  TGI: > 100 µM
[36]
  TGI: > 100 µM
[38]
  TGI: > 100 µM
[39]
  TGI: > 100 µM
[69]
  TGI: > 100 µM
[40]
  TGI: > 100 µM
[41]
  TGI: > 100 µM
[42]
  TGI: > 100 µM
[43]
  TGI: > 100 µM
[44]
  TGI: > 100 µM
[45]
  TGI: > 100 µM
[46]
  TGI: > 100 µM
[47]
  TGI: > 100 µM
[48]
  TGI: > 100 µM
[49]
  TGI: > 100 µM
[67]
  TGI: > 100 µM
[50]
  TGI: > 100 µM
[51]
  TGI: > 100 µM
[53]
  TGI: > 100 µM
[54]
  TGI: > 100 µM
[55]
  TGI: > 100 µM
[56]
  TGI: > 100 µM
[57]
  TGI: > 100 µM
